Data set [1] concerns pTIM5319 (lacks the AHL-binding site LasR). Description: Related reporter pTIM5319 lacking a functional AHL-binding domain. The data set is classed as cell-based. Particulars: E. coli, 37° C., 6 h. As for the experimental part:
FIG. 16. depicts activating activity of doscadenamide A (1a) in related reporter pTIM5319, which lacks a functional AHL-binding domain. The bacterial cultures were treated with 1a in a dose-response manner and solvent control at 37° C. for 6 h before fluorescence was measured. Results are expressed as fold activation compared to solvent control. Data are presented as mean±SD, **P<0.01, ****P<0.0001, compared to solvent control using one-way ANOVA (n=3).
(§1) Lett. 1998, 163 (2), 185-192]. […] 2011, 7 (4), 1205-1216]. To validate the activating activity of 1a, its effect on wild-type P. aeruginosa was tested. […] For comparison, the other three diastereomers 1b, 1c and 1d were also included in the test. Such superagonists are expected to artificially regulate virulence factor production such as pyocyanin and activate QS at lower bacterial cell populations, thus to stimulate the host immune system to clear the infection when fewer bacterial cells are present [Galloway, W.; Hodgkinson, J.; Bovvden, S.; Welch, M.; Spring, D., Trends Microbiol. 2012, 20 (9), 449-458].
Doscadenamide A (1a) activates QS, which was established using the 3-oxo-C12-HSL-responsive reporter plasmid pSB1075, a plasmid encoding LasR (the C12 HSL receptor in Pseudomonas aeruginosa) and containing a light-producing luxCDABE cassette expressed in Escherichia coli. […]

In data set [2] the test system is P. aeruginosa mutant PAO-JP1. As to the kind of experiment: Pyocyanin quantification in P. aeruginosa strain PAO-JP1. The class given is cell-based, Pseudomonas aeruginosa. Particulars: PAO-JP1, 6 h. As for the experimental part: To follow up our previous study regarding the QS modulatory activity of doscadenamide A (1a) on wild-type P. aeruginosa and extend reporter gene assay studies, we examined the QS activation of different doscadenamides using a QS system deficient strain, PAO-JP1. PAO-JP1 is a P. aeruginosa mutant with a lasl deletion that cannot produce C12. […]
[…] The culture was then spun down for 10 min at the maximum speed, and the supernatant was collected and filtered using […] Eppendorf filters. 500 μL of the sterile supernatant were added to 500 μL CHCl3 in an Eppendorf tube. Tube shaking allowed for the extraction of pyocyanin in the CHCl3 layer. This layer was then added to 150 μL of 0.2 N HCl in another Eppendorf tube. After shaking, the aqueous layer and the organic layer were separated. 100 μL of the aqueous layer were transferred to a clear bottomed 384-well plate and the absorbance was measured at […] to quantify the pyocyanin production. Data was analyzed using GraphPad Prism 5 software.

For data set [3], the system named is MDA-MB-231 cells. Description: MDA-MB-231 cell viability (MTT) with TRAIL, synergy evaluation. Particulars: for cell viability after pretreatment and TRAIL co-treatment: 3 h pretreatment (5 μM, 2 μM); for cell viability after pretreatment and TRAIL co-treatment / synergistic effect with TRAIL / sensitization (Bliss independence): then TRAIL 20 ng/mL for 24 h; for synergistic effect with TRAIL / sensitization (Bliss independence): 3 h pretreatment; for cytotoxicity compared to doscadenamide A (1a): MDA-MB-231.
Experimental: MDA-MB-231 cell viability after 3 h pretreatment with DMSO (solvent control), C12 as well as doscadenamide A (1a) and its structural analogs, B) 5 μM and C) 2 μM followed by combined TRAIL (20 ng/mL) treatment for 24 h. […] MDA-MB-231 cells were treated with doscadenamide A (1a) and its structural analogs for 3 h, followed by treatment with TRAIL (20 ng/mL) for 24 h, C12 was included as positive control. “A Bliss independence” is the difference between observed growth inhibition and Bliss expectation. Values greater than zero represent a synergistic response, represented as red in the figure. Bliss expectation is C=(A+B)−(A×B), where A and B are the growth inhibition fractions of two compounds at a given dose. Cell viability was quantified using MTT assay.
MDA-MB-231 cells were pretreated with C12, doscadenamides or solvent control for 3 h and then stimulated with TRAIL for 24 h (FIGS. 20B and 20C). We measured cell viability and calculated the A Bliss independence of each compound with TRAIL.

For data set [4], the system named is PARP. Description: Western blot of PARP cleavage in MDA-MB-231 cells with TRAIL. The class given is cell-based. To be noted: MDA-MB-231, TRAIL 20 ng/mL, compound 50 μM (FIG. 20E).
Data set [5] relates to V. harveyi BB120 strain. Description: Bioluminescence modulation in V. harveyi. The class given is cell-based, Vibrio harveyi. Particulars: for QS activation (bioluminescence, ΔLUM normalized by OD600): concentration range 10-200 PM. As for the experimental part: FIGS. 19A-C depict QS activity in different systems. FIG. 19A is a graph showing activity of doscadenamide A (1a) in E. coli reporter gene assay using pSB1075 (wild-type) and point mutants (Y56F, W60F and D73N). […] C12 was used as the positive control. […] AI-1 is a reported quorum sensing autoinducer and was used as the positive control.
Bioluminescent V. harveyi BB120 strain (wild-ype) was cultivated in AB media overnight (15-16 h) at 30° C. (OD600 is about 2.0-2.5). The overnight cultivated strain […] was diluted to 10 mL by AB media (OD600<0.1). 100 μL the diluted BB120 strain was distributed to each well of 96-well white plate. The solution of each tested compound in DMSO (0.5 μL) at different concentration was added to BB120 cultures on plate. Triplicate was conducted for each compound and each concentration. After addition, bacterial cultures were incubated at 30° C. for 7 hours. Then the emitted luminescence and OD600 was measured by BioTek Synergy H1 plate reader. AI-1 and DMSO were used as positive control and negative control, respectively.

Data set [6] deals with wild-type P. aeruginosa. As to the kind of experiment: Pyocyanin production in wild-type P. aeruginosa. The class given is cell-based, Pseudomonas aeruginosa. To be noted: 10 PM, 6 h shaking at 37° C. As for the experimental part:
Data are presented as mean±SD, **P<0.01, ****P<0.0001, compared to solvent control using one-way ANOVA (n=3).
as §1

Data set [7] deals with T1, LasR (Pseudomonas aeruginosa, UniProt P25084). Description: Quorum sensing reporter assay, pSB1075 (lasR-luxCDABE) expressed in E. coli. Also on record: expressed in transfected cells; host or cells: Escherichia coli carrying plasmid pSB1075. The class given is cell-based. Particulars: 37° C., 6 h, dose-response, vs solvent control. As for the experimental part:
FIG. 15. depicts activating activity of doscadenamide A (1a) in pSB1075, the lasR-luxCDABE reporter constructs expressed in E. coli. The bacterial cultures were treated with 1a in a dose-response manner and solvent control at 37° C. for 6 h before fluorescence was measured. Results are expressed as fold activation compared to solvent control. Data are presented as mean±SD, **P<0.01, ****P<0.0001, compared to solvent control using one-way ANOVA (n=3).
as §1, with “449-458]. […]” for “449-458].”
Doscadenamide A (1a) in a dose-response manner and EtOH control were added to the corresponding wells in a 96-well plate and the solvent was allowed to evaporate. […] The plate was incubated at 37° C. for 6 h before the measurement of luminescence.

Data set [8] concerns cancer cells. To be noted: cited from earlier work.
Data set [9] concerns the target T1, LasR. Particulars: cited from earlier work.

Entries after “also recorded” stand apart in the source; their conditions may differ.

T1 sequence (P25084 whole entry): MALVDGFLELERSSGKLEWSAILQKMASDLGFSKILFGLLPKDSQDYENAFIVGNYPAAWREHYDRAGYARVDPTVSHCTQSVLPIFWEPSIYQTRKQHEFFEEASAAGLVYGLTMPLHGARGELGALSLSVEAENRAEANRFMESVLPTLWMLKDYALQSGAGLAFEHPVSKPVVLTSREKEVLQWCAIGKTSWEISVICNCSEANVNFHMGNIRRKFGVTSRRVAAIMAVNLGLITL

Take `C#CCCCC[C@@H](C)C(=O)NCCCC[C@H]1C(OC)=CC(=O)N1C(=O)[C@H](C)CCCCC#C` [Compound 1a, (R)-N-(4-((S)-3-methoxy-1-((R)-2-methyloct-7-ynoyl)-5-oxo-2,5-dihydro-1H-pyrrol-2-yl)butyl)-2-methyloct-7-ynamide]: in [1], the “activation of related reporter pTIM5319” value is on record as “abolished”. Further, the “QS activation (pyocyanin production normalized for cell number)” value in data set [2] (100 μM) is recorded as 3 fold. Besides, in [3], the “cell viability after pretreatment and TRAIL co-treatment” value is given as “clear decrease in cell viability”; the “synergistic effect with TRAIL / sensitization (Bliss independence)” value is on record as “can effectively improve TRAIL-induced apoptosis”. The “PARP cleavage (Western blot)” value in [4] was “evident presence of cleaved PARP”. Further, the “QS activation (bioluminescence, ΔLUM normalized by OD600)” value in data set [5] was “activating across the concentration range tested”. In data set [6], the “production of QS pigment pyocyanin / QS modulation” value is “elevated”. Besides, the “activation of 3-oxo-C12-HSL-responsive reporter plasmid pSB1075 (QS activation)” value in data set [7] is “can activate; also recorded: activates QS”.

On to `C=CCCCC[C@@H](C)C(=O)NCCCC[C@H]1C(OC)=CC(=O)N1C(=O)[C@H](C)CCCCC=C` [Compound 1f, Doscadenamide F], for which the “cytotoxicity compared to doscadenamide A (1a)” value in [3] was “improved cytoxicity”. In addition, in data set [5], the “QS activating activity at <100 μM” value is “reduced”.

Consider `C#CCCCCCC(=O)NCCCC[C@H]1C(OC)=CC(=O)N1C(=O)[C@H](C)CCCCC#C` [Compound 1j, Doscadenamide J], for which, in data set [5], the “QS activating activity at <100 μM” value was “reduced”.

As for `CCCCCC[C@@H](C)C(=O)NCCCC[C@H]1C(OC)=CC(=O)N1C(=O)[C@H](C)CCCCCC` [Compound 1k, Doscadenamide S4], in [3], the “synergistic effect with TRAIL / sensitization (Bliss independence)” value is “best agents to sensitize MDA-MB-231 cells” and the “cytotoxicity compared to doscadenamide A (1a)” value is listed as “improved cytoxicity”.

For the compound `C#CCCCC[C@@H](C)C(=O)NCCCC[C@@H]1NC(=O)C=C1OC` [Compound 2a, Doscadenamide S8], the “QS activation (pyocyanin production) without normalization for bacterial cell count” value in data set [2] is “did not show any level of activation”. Also, the “QS-activating effect (pyocyanin production normalized for cell number), in words” value in data set [2] (100 μM) is “minimal QS-activating effect; also recorded: essentially inactive”. In addition, in data set [3], the “cell viability after pretreatment and TRAIL co-treatment” value is reported as “no effect on cell viability”; the “synergistic effect with TRAIL / sensitization (Bliss independence)” value is given as “synergistic effect with TRAIL, except 2a”. Besides, the “PARP cleavage (Western blot)” value in [4] was “no effect”. Further, in data set [5], the “QS activation (bioluminescence, ΔLUM normalized by OD600)” value is listed as “consistently inhibited QS signaling”.

Regarding `C#CCCCC[C@@H](C)C(=O)N1C(=O)C=C(OC)[C@@H]1CCCCNC(=O)OC(C)(C)C` [Compound 3a, Doscadenamide S10], the “QS activation (pyocyanin production normalized for cell number)” value in [2] (100 μM) came to 3 fold. Further, the “QS activation (bioluminescence, ΔLUM normalized by OD600)” value in data set [5] is given as “activating across the concentration range tested”.

For the compound `C=CCCCC[C@@H](C)C(=O)N1C(=O)C=C(OC)[C@@H]1CCCCNC(=O)OC(C)(C)C` [Compound 3b, Doscadenamide S11], the “QS activation (pyocyanin production normalized for cell number)” value in data set [2] (100 μM) is listed as 4 fold. Further, the “cytotoxicity compared to doscadenamide A (1a)” value in data set [3] was “improved cytoxicity”.

As to `CCCCCC[C@@H](C)C(=O)N1C(=O)C=C(OC)[C@@H]1CCCCNC(=O)OC(C)(C)C` [Compound 3c, Doscadenamide S12], in [2] (100 μM), the “QS activation (pyocyanin production normalized for cell number)” value worked out at 5 fold. In addition, in data set [3], the “cell viability after pretreatment and TRAIL co-treatment” value was “enhanced activity”; the “synergistic effect with TRAIL / sensitization (Bliss independence)” value is “best agents to sensitize MDA-MB-231 cells”; the “cytotoxicity compared to doscadenamide A (1a)” value is “improved cytoxicity”. Further, in data set [5], the “QS activation (bioluminescence, ΔLUM normalized by OD600)” value is “only had a minor activating trend”.

As to `CCCCCCCCCC(=O)CC(=O)N[C@H]1CCOC1=O` [Compound C12, reference compound], in data set [2] (100 μM), the “QS activation (pyocyanin production normalized for cell number)” value was about 3 fold. The “synergistic effect on TRAIL-induced apoptosis reported in the literature” value in [8] is on record as “synergistic effect on TRAIL-induced apoptosis”.

Regarding `CCCCCCC[C@@H]1C[C@H]1CCC(=O)O` [lyngbyoic acid], the “LasR / quorum sensing modulation reported in the literature” value in [9] is “strongly inhibit the activity of LasR”.

As for `C=C(CCCCC)CCCC(=O)O` [pitinoic acid A], in data set [9], the “LasR / quorum sensing modulation reported in the literature” value is recorded as “P. aeruginosa quorum sensing inhibitor”.

Consider “TRAIL: tumor necrosis factor-related apoptosis-inducing ligand, a TNF family cytokine”, for which, in data set [3] (MDA-MB-231, TRAIL alone 20 ng/mL), the “fraction of cells undergoing apoptotic death” value is “approximately 20%”. For the same compound, the cell viability remaining in [3] (MDA-MB-231, TRAIL alone 500 ng/mL) is 50%.

The record behind these values is patent US12565474B2, “Discovery, total synthesis, and bioactivity of doscadenamides” (priority 2019, dated 2026).
